Source: patent publication US7094414B2, “Famotidine injections” (Astellas Pharma Inc., priority 2000, dated 2006)

What was measured:
[1] = Kinematic viscosity of aqueous solutions of non-aqueous solvents (25° C.); type: physicochemical
Excerpt: The “kinematic viscosity” herein is a value obtained by dividing viscosity of a liquid by its density and means a value measured using an Ubbelohde viscometer in accordance with Japanese Pharmacopoeia viscosity measuring method. In the invention, according to Japanese Pharmacopoeia, centistokes in CGS system is used as a unit.
These water-soluble acid amides may be used singly or as a mixture of two or more of them. Furthermore, within a range imparting no serious influence on viscosity, in addition to these, water-soluble non-aqueous solvents shown in JP-A-11-193233, for example, those described in the following Table 1 may be used as auxiliary solubilizing means.

[2] = as described in JP-B-63-65047; cited from earlier work

Row | Compound | Kinematic viscosity of aqueous solution ([1]; concentration 5% (W/V)) [Centistokes] | Kinematic viscosity of aqueous solution ([1]; concentration 10% (W/V)) [Centistokes] | Kinematic viscosity of aqueous solution ([1]; concentration 15% (W/V)) [Centistokes] | Kinematic viscosity of aqueous solution ([1]; concentration 20% (W/V)) [Centistokes] | Kinematic viscosity of aqueous solution ([1]; concentration 37% (W/V)) [Centistokes] | water-solubility [2] [w/v %]
1 | CCO [Ethanol] | 1.082 | 1.300 | 1.577 | 1.857 | 2.479 | 
2 | NC(N)=Nc1nc(CSCCC(N)=NS(N)(=O)=O)cs1 [Famotidine] |  |  |  |  |  | ≤ 0.1
3 | CC(O)CO (centres unmarked) [Propylene glycol] | 1.067 | 1.247 | 1.455 | 1.729 | 3.048 | 
